Laboratory results reported in patent US8350062B2, “Synthesis and anticancer activity of new actin-targeting small-molecule agents” (priority 2009, dated 2013).

Legend:
Assay in all cases: NCI 60 cell line single dose screen
Type in all cases: cell-based, human
NCI-H322M = NCI-H322M (Non-Small Cell Lung Cancer), 10 micromolar, 48 h
Excerpt: (§1) Analog 10 was screened utilizing 60 different human tumor cell lines, representing leukemia, melanoma and cancers of the lung, colon, brain, ovary, breast, prostate, and kidney in order to show selective growth inhibition or cell killing of particular tumor cell lines. This screen is unique in that the complexity of a 60 cell line dose response produced by a given compound results in a biological response pattern which can be utilized in pattern recognition algorithms (COMPARE program. See: http://dtp.nci.nih.gov/docs/compare/compare.html). Using these algorithms, it is possible to assign a putative mechanism of action to a test compound, or to determine that the response pattern is unique and not similar to that of any of the standard prototype compounds included in the NCI database. In addition, following characterization of various cellular molecular targets in the 60 cell lines, it may be possible to select compounds most likely to interact with a specific molecular target.
(§2) The screening is a two-stage process, beginning with the evaluation of the compound against the 60 cell lines at a single dose of 10 uM.
(§3) The human tumor cell lines of the cancer screening panel are grown in RPMI 1640 medium containing 5% fetal bovine serum and 2 mM L-glutamine. For a typical screening experiment, cells are inoculated into 96 well microtiter plates in 100 μL at plating densities ranging from 5,000 to 40,000 cells/well depending on the doubling time of individual cell lines. After cell inoculation, the microtiter plates are incubated at 37° C., 5% CO2, 95% air and 100% relative humidity for 24 h prior to addition of experimental drug.
(§4) After 24 h, two plates of each cell line are fixed in situ with TCA, to represent a measurement of the cell population for each cell line at the time of drug addition (Tz). Experimental drugs are solubilized in dimethyl sulfoxide at 400-fold the desired final maximum test concentration and stored frozen prior to use. At the time of drug addition, an aliquot of frozen concentrate is thawed and diluted to twice the desired final maximum test concentration with complete medium containing 50 μg/ml gentamicin.
(§5) Following drug addition, the plates are incubated for an additional 48 h at 37° C., 5% CO2, 95% air, and 100% relative humidity. For adherent cells, the assay is terminated by the addition of cold TCA. Cells are fixed in situ by the gentle addition of […] of cold 50% (w/v) TCA (final concentration, 10% TCA) and incubated for 60 minutes at 4° C. The supernatant is discarded, and the plates are washed five times with tap water and air dried. Sulforhodamine B (SRB) solution (100 μl) at 0.4% (w/v) in 1% acetic acid is added to each well, and plates are incubated for 10 minutes at room temperature. After staining, unbound dye is removed by washing five times with 1% acetic acid and the plates are air dried. Bound stain is subsequently solubilized with 10 mM trizma base, and the absorbance is read on an automated plate reader at a wavelength of 515 nm. For suspension cells, the methodology is the same except that the assay is terminated by fixing settled cells at the bottom of the wells by gently adding 50 μl of 80% TCA (final concentration, 16% TCA). Using the absorbance measurements [time zero, (Tz), control growth, (C), and test growth in the presence of drug (Ti)], the percentage growth is calculated.

NCI-H460 = NCI-H460 (Non-Small Cell Lung Cancer), 10 micromolar, 48 h
Excerpt: as §1, §2, §3, §4, §5

HCT-116 = HCT-116 (Colon Cancer), 10 micromolar, 48 h
Excerpt: as §1, §2, §3, §4, §5

SK-OV-3 = SK-OV-3 (Ovarian Cancer), 10 micromolar, 48 h
Excerpt: as §1, §2, §3, §4, §5

RXF 393 = RXF 393 (Renal Cancer), 10 micromolar, 48 h
Excerpt: as §1, §2, §3, §4, §5

SK-MEL-28 = SK-MEL-28 (Melanoma), 10 micromolar, 48 h
Excerpt: as §1, §2, §3, §4, §5

SN12C = SN12C (Renal Cancer), 10 micromolar, 48 h
Excerpt: as §1, §2, §3, §4, §5

TK-10 = TK-10 (Renal Cancer), 10 micromolar, 48 h
Excerpt: as §1, §2, §3, §4, §5

OVCAR-4 = OVCAR-4 (Ovarian Cancer), 10 micromolar, 48 h
Excerpt: as §1, §2, §3, §4, §5

NCI-H23 = NCI-H23 (Non-Small Cell Lung Cancer), 10 micromolar, 48 h
Excerpt: as §1, §2, §3, §4, §5

U251 = U251 (CNS Cancer), 10 micromolar, 48 h
Excerpt: as §1, §2, §3, §4, §5

DU-145 = DU-145 (Prostate Cancer), 10 micromolar, 48 h
Excerpt: as §1, §2, §3, §4, §5

MDA-MB-468 = MDA-MB-468 (Breast Cancer), 10 micromolar, 48 h
Excerpt: as §1, §2, §3, §4, §5

SF-539 = SF-539 (CNS Cancer), 10 micromolar, 48 h
Excerpt: as §1, §2, §3, §4, §5

NCI-H226 = NCI-H226 (Non-Small Cell Lung Cancer), 10 micromolar, 48 h
Excerpt: as §1, §2, §3, §4, §5

SR = SR (Leukemia), 10 micromolar, 48 h
Excerpt: as §1, §2, §3, §4, §5

HCC-2998 = HCC-2998 (Colon Cancer), 10 micromolar, 48 h
Excerpt: as §1, §2, §3, §4, §5

786-0 = 786-0 (Renal Cancer), 10 micromolar, 48 h
Excerpt: as §1, §2, §3, §4, §5

RPMI-8226 = RPMI-8226 (Leukemia), 10 micromolar, 48 h
Excerpt: as §1, §2, §3, §4, §5

IGROV1 = IGROV1 (Ovarian Cancer), 10 micromolar, 48 h
Excerpt: as §1, §2, §3, §4, §5

A549/ATCC = A549/ATCC (Non-Small Cell Lung Cancer), 10 micromolar, 48 h
Excerpt: as §1, §2, §3, §4, §5

For `COCCC(=O)NC[C@H](O)[C@H](C)C(=O)NCCC[C@H]1O[C@@]2(CCC[C@@H](CC[C@H](C)/C=C(\C)[C@H](C)O)O2)CCC1C` (stereo partly drawn) [Analog 10], the “Growth Percent” value (NCI-H322M) was 113.58%, the “Growth Percent” value (NCI-H460) was 48.25% and the “Growth Percent” value (HCT-116) was 55.84%. The “Growth Percent” value (SK-OV-3) was 59.10%, the “Growth Percent” value (RXF 393) was 26.83% and the “Growth Percent” value (SK-MEL-28) was 71.16%. The “Growth Percent” value (SN12C) was 57.59%, the “Growth Percent” value (TK-10) was 30.01% and the “Growth Percent” value (OVCAR-4) was 45.16%. For the same compound, the “Growth Percent” value (NCI-H23) was 56.78%, the “Growth Percent” value (U251) was 50.08% and the “Growth Percent” value (DU-145) was 54.89%. The “Growth Percent” value (MDA-MB-468) was 29.03%, the “Growth Percent” value (SF-539) was 40.64% and the “Growth Percent” value (NCI-H226) was 58.32%. The “Growth Percent” value (SR) was 40.40%, the “Growth Percent” value (HCC-2998) was 66.34% and the “Growth Percent” value (786-0) was 50.94%. The “Growth Percent” value (RPMI-8226) was 58.70%, the “Growth Percent” value (IGROV1) was 17.52% and the “Growth Percent” value (A549/ATCC) was 44.50%.
